In patent US20260008783A1, “MODULATORS OF FSHR AND USES THEREOF” (Celmatix Inc., priority 2022, published 2026):

Molecular target: T1, Follicle Stimulating Hormone Receptor (FSHR) (Homo sapiens, UniProt P23945)
T1 construct: HA (N); expressed in transfected cells; host or cells: CHO-K1, transient transfection, pHM6 vector (CMV promoter)
T1 sequence (P23945 18-695): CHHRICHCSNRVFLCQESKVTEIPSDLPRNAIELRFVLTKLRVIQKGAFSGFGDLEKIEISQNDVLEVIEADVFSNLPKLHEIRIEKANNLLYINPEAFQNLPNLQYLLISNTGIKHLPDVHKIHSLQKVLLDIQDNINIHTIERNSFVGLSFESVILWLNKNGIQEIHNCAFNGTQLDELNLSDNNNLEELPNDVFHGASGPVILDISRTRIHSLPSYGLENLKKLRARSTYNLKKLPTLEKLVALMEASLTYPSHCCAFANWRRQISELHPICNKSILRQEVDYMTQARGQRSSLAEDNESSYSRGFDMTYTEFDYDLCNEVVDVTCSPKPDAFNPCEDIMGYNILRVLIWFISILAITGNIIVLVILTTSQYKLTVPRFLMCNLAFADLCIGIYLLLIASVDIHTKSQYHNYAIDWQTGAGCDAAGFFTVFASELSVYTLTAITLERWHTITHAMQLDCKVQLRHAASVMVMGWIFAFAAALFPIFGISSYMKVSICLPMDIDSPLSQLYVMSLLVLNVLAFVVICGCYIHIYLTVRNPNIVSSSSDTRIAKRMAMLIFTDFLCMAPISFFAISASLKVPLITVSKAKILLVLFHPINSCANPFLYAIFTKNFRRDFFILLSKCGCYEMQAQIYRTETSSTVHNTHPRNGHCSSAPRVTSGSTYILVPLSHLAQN
Assay: HTRF cAMP agonist assay, FSHR, transiently transfected CHO-K1 cells
Type: cell-based
Conditions: CHO-K1 cells transiently expressing human FSHR, read-out: IC50 FSHR LANCE CAMP

IC50 [nM] | Structure (SMILES)
1.29 | COc1cc2c(cc1-c1cncc(C(N)=O)c1)-c1c(c(C(=O)N3CCOCC3(C)C)nn1-c1ccsc1)CC2 [Compound 9-21, 5-[3-(3,3-dimethylmorpholine-4-carbonyl)-7-methoxy-1-(3-thienyl)-4,5-dihydrobenzo[g]indazol-8-yl]pyridine-3-carboxamide]
15500 | COc1cc(Cl)cc(-n2ncc3c2-c2cc(-c4cncc(C(N)=O)c4)c(OC)cc2CC3)c1 [Compound 9-24]
5.06 | COc1cc2c(cc1-c1cncc(C(N)=O)c1)-c1c(c(C(=O)N3CCOCC3(C)C)nn1-c1ccccn1)CC2 [Compound 10-01, 5-[3-(3,3-dimethylmorpholine-4-carbonyl)-7-methoxy-1-(2-pyridyl)-4,5-dihydrobenzo[g]indazol-8-yl]pyridine-3-carboxamide]
40.1 | COc1cc2c(cc1-c1cncc(C(N)=O)c1)-c1c(c(C(=O)N3CCOCC3(C)C)nn1-c1cccnc1)CC2 [Compound 10-02]
190 | COc1cc2c(cc1-c1cncc(C(N)=O)c1)-c1c(c(C(=O)N3CCOCC3(C)C)nn1-c1ccncc1)CC2 [Compound 10-03]
67.4 | COc1cc2c(cc1-c1cncc(C(N)=O)c1)-c1c(c(C(=O)N3CCOCC3(C)C)nn1-c1cnccn1)CC2 [Compound 10-06]
22.5 | COc1cc2c(cc1-c1cncc(C(N)=O)c1)-c1c(c(C(=O)N3CCOCC3(C)C)nn1-c1cccnn1)CC2 [Compound 10-07]
400 | COc1cc2c(cc1-c1cncc(C(N)=O)c1)-c1c(c(C(=O)N3CCOCC3(C)C)nn1-c1ncccn1)CC2 [Compound 10-08]
165 | COc1cc2c(cc1-c1cncc(C(N)=O)c1)-c1c(c(C(=O)N3CCOCC3(C)C)nn1-c1cncnc1)CC2 [Compound 10-09]
14.8 | COc1cc2c(cc1-c1cncc(C(N)=O)c1)-c1c(c(C(=O)N3CCOCC3(C)C)nn1-c1ccncn1)CC2 [Compound 10-10]
50.1 | COC(=O)c1cc(OC)nc(-c2cc3c(cc2OC)CCc2c(C(=O)N(C)C(C)(C)C)nn(-c4cc(Cl)cc(Cl)c4)c2-3)c1 [Compound 11-01A, methyl2-[3-[tert-butyl(methyl)carbamoyl]-1-(3,5-dichlorophenyl)-7-methoxy-4,5-dihydrobenzo[g]indazol-8-yl]-6-methoxy-pyridine-4-carboxylate]
12.5 | COc1cc(C(N)=O)cc(-c2cc3c(cc2OC)CCc2c(C(=O)N(C)C(C)(C)C)nn(-c4cc(Cl)cc(Cl)c4)c2-3)n1 [Compound 11-01]

Second part, the compound before the results:

Structure (SMILES) | IC50 [nM]
O=C(c1nn(-c2ccccn2)c2c1CCc1ccc(-c3cccnc3)cc1-2)N1CCNC(=O)C12CC2 [Compound 8-81] | 5380
COc1cc2c(cc1-c1cncc(C(N)=O)c1)-c1c(c(C(=O)N3CCNC(=O)C3)nn1-c1cc(Cl)cc(Cl)c1)CC2 [Compound 8-82] | 79.8
COc1cc2c(cc1-c1cncc(C(N)=O)c1)-c1c(c(C(=O)N3CCCC(=O)C3)nn1-c1cc(Cl)cc(Cl)c1)CC2 [Compound 8-83] | 38.9
CCC1C(=O)NCCN1C(=O)c1nn(-c2cc(Cl)cc(Cl)c2)c2c1CCc1cc(OC)c(-c3cncc(C(N)=O)c3)cc1-2 (centres unmarked) [Compound 8-84] | 32.4
COc1cc2c(cc1-c1cncc(C(N)=O)c1)-c1c(c(C(=O)N3CC(=O)NCC3(C)C)nn1-c1cc(Cl)cc(Cl)c1)CC2 [Compound 8-86] | 24.5
COc1cc2c(cc1-c1cncc(C(N)=O)c1)-c1c(c(C(=O)N3[C@@H](C)CNC(=O)[C@@H]3C)nn1-c1cc(Cl)cc(Cl)c1)CC2 [Compound 8-87] | 8.14
COc1cc2c(cc1-c1cncc(C(N)=O)c1)-c1c(c(C(=O)N3CCNC(=O)C34CC4)nn1-c1cc(Cl)cc(Cl)c1)CC2 [Compound 8-89] | 18.9
COc1cc2c(cc1-c1cncc(C(N)=O)c1)-c1c(c(C(=O)N3CCC(O)C3(C)C)nn1-c1cc(Cl)cc(Cl)c1)CC2 (centres unmarked) [Compound 8-90A] | 2.15
COc1cc2c(cc1-c1cncc(C(N)=O)c1)-c1c(c(C(=O)N3CCC(=O)C3(C)C)nn1-c1cc(Cl)cc(Cl)c1)CC2 [Compound 8-90] | 6.69
COc1cc2c(cc1-c1cncc(C(N)=O)c1)-c1[nH]nc(C(=O)N3CCOCC3(C)C)c1CC2 [Compound 9-01] | 1790
CC1(C)COCCN1C(=O)c1nn(-c2cc(Cl)cc(Cl)c2)c2c1CCc1ccc(-c3cncc(C(N)=O)c3)cc1-2 [Compound 9-02] | 3.81
CC1(C)COCCN1C(=O)c1nn(-c2cc(Cl)cc(Cl)c2)c2c1CCc1cc(O)c(-c3cncc(C(N)=O)c3)cc1-2 [Compound 9-04, 5-[1-(3,5-dichlorophenyl)-3-(3,3-dimethylmorpholine-4-carbonyl)-7-hydroxy-4,5-dihydrobenzo[g]indazol-8-yl]pyridine-3-carboxamide] | 6.99
COc1cc2c(cc1-c1cncc(C(N)=O)c1)-c1c(c(C(=O)N(C)C)nn1-c1cc(Cl)cc(Cl)c1)CC2 [Compound 9-05] | 45.2
COc1cc2c(cc1-c1cncc(C(N)=O)c1)-c1c(c(CN3CCOCC3(C)C)nn1-c1cc(Cl)cc(Cl)c1)CC2 [Compound 9-06] | 0.976
COc1cc2c(cc1-c1cccnc1)-c1c(c(C(=O)N3CCOCC3(C)C)nn1-c1cc(Cl)cc(Cl)c1)CC2 [Compound 9-07] | 5.98
COc1ccc2c(c1)CCc1c(C(=O)N3CCOCC3(C)C)nn(-c3cc(Cl)cc(Cl)c3)c1-2 [Compound 9-08A] | 2480
COc1cc2c(cc1OC(C)C)-c1c(c(C(=O)N3CCOCC3(C)C)nn1-c1cc(Cl)cc(Cl)c1)CC2 [Compound 9-08] | 16.2
CCn1nc(C(=O)N2CCOCC2(C)C)c2c1-c1cc(-c3cncc(C(N)=O)c3)c(OC)cc1CC2 [Compound 9-11] | 830
COc1cc2c(cc1-c1cncc(C(N)=O)c1)-c1c(c(C(=O)N3CCOCC3(C)C)nn1C(C)C)CC2 [Compound 9-12] | 701
CCCn1nc(C(=O)N2CCOCC2(C)C)c2c1-c1cc(-c3cncc(C(N)=O)c3)c(OC)cc1CC2 [Compound 9-13, 5-[3-(3,3-dimethylmorpholine-4-carbonyl)-7-methoxy-1-propyl-4,5-dihydrobenzo[g]indazol-8-yl]pyridine-3-carboxamide] | 92.4
COc1cc2c(cc1-c1cncc(C(N)=O)c1)-c1c(c(C(=O)N3CCOCC3(C)C)nn1CC(C)C)CC2 [Compound 9-14] | 14.3
CCCCn1nc(C(=O)N2CCOCC2(C)C)c2c1-c1cc(-c3cncc(C(N)=O)c3)c(OC)cc1CC2 [Compound 9-15, 5-[1-butyl-3-(3,3-dimethylmorpholine-4-carbonyl)-7-methoxy-4,5-dihydrobenzo[g]indazol-8-yl]pyridine-3-carboxamide] | 42
COc1cc2c(cc1-c1cncc(C(N)=O)c1)-c1c(c(C(=O)N3CCOCC3(C)C)nn1C1CCCCC1)CC2 [Compound 9-16] | 94.1
COc1cc2c(cc1-c1cncc(C(N)=O)c1)-c1c(c(C(=O)N3CCOCC3(C)C)nn1-c1ccccc1)CC2 [Compound 9-17] | 5.64
COc1cc2c(cc1-c1cncc(C(N)=O)c1)-c1c(c(C(=O)N3CCOCC3(C)C)nn1-c1cc(F)cc(F)c1)CC2 [Compound 9-18] | 0.615
COc1cc(Cl)cc(-n2nc(C(=O)N3CCOCC3(C)C)c3c2-c2cc(-c4cncc(C(N)=O)c4)c(OC)cc2CC3)c1 [Compound 9-20] | 3.85
